Experiments:
[1] = tested on: pAKT (S473) in T47D.1 cells, PI3Kα H1047R mutation present; assay: HTRF pAKT-T47D cell assay; format: cell-based; details: RPMI+10% FBS+0.2 units/mL bovine insulin
Method: Compounds A and B were assayed using homogeneous time-resolved fluorescence (HTRF).
Gibco RPMI 1640 Medium, no phenol red; Gibco RPMI 1640 Medium; Gibco Trypsin-EDTA (0.5%), no phenol red; Gibco DPBS; Trypan blue solution 0.4% (Corning); Avantor Seradigm Premium Grade Fetal Bovine Serum (FBS); Greiner 784080-384 well TC treated white plates; pAKT (Ser473) HTRF; Gibco Insulin, human recombinant, zinc solution; Gibco Recovery Cell Culture Freezing Medium; Countess II FL Automated Cell Counter (ThermoFisher); Countess II Slides (ThermoFisher); Microscope; and PHERAstar FSX Microplate Reader (BMG LABTECH, Inc.).
The cell line ID was T47D.1, the HTRF detection was pAKT (S473), a PI3Kα H1047R mutation was present, the seeding density was 5000, the timepoint was 1 hour, and the medium used was RPMI+10% FBS (no phenol red)+0.2 units/mL bovine insulin.
• The cell density was not permitted to reach 100% confluence. The cells were split 1.5 when they reached ˜80% confluence. • Cells were split twice a week (Mon and Fri). • Cells over passage 18 were not used (˜2 months of maintenance). • Antibiotics were not used for tissue culture maintenance or assays.
The procedure was as follows: • 1. Prepared ARP: • a. Stamped 12.5 nL from 10 mM source plate to destination plate using Echo. Sealed plate immediately and froze at −20° C. if it was not used on the same day. • b. If a frozen ARP was used, the plate was thawed and spun at 1000 rpm×1 min. • 2. Preparation of cells (adherent): • a. Aspirated media from cells. Washed cells with sterile 1×PBS. Aspirated PBS and added appropriate amount of Trypsin. • b. Once cells were fully trypsinized, added appropriate media to resuspend cells. Transferred cells to a 15 mL or 50 mL conical tube. • c. Counted cells on the Countess II Cell Counter. • 3. Plating of cells: • a. […] Calculated the amount of HTRF antibody master mix needed to perform the desired experiments plus any extra dead volume required for dispensing (4 mL required per well). […]
• 6. Measured on the PHERAstar/Envision using the HTRF protocol. When plates were read, all wells were read.

[2] = molecular target: T1, PI3Kα H1047R (full-length p110-α H1047R complexed with truncated p85-α, residues 322-694) + wortmannin (Homo sapiens, UniProt P42336, H1047R); assay: Surface Plasmon Resonance (SPR) binding, Biacore 8K, ATP site blocked with wortmannin; details: multi-cycle kinetics, 25° C., protein pre-incubated with 1 μM wortmannin
T1 construct: The protein contained a full-length p110-α subunit harboring the H1047R mutation with an N-terminal AviTag
T1 sequence (P42336 whole entry H1047R, the tested form may be a part): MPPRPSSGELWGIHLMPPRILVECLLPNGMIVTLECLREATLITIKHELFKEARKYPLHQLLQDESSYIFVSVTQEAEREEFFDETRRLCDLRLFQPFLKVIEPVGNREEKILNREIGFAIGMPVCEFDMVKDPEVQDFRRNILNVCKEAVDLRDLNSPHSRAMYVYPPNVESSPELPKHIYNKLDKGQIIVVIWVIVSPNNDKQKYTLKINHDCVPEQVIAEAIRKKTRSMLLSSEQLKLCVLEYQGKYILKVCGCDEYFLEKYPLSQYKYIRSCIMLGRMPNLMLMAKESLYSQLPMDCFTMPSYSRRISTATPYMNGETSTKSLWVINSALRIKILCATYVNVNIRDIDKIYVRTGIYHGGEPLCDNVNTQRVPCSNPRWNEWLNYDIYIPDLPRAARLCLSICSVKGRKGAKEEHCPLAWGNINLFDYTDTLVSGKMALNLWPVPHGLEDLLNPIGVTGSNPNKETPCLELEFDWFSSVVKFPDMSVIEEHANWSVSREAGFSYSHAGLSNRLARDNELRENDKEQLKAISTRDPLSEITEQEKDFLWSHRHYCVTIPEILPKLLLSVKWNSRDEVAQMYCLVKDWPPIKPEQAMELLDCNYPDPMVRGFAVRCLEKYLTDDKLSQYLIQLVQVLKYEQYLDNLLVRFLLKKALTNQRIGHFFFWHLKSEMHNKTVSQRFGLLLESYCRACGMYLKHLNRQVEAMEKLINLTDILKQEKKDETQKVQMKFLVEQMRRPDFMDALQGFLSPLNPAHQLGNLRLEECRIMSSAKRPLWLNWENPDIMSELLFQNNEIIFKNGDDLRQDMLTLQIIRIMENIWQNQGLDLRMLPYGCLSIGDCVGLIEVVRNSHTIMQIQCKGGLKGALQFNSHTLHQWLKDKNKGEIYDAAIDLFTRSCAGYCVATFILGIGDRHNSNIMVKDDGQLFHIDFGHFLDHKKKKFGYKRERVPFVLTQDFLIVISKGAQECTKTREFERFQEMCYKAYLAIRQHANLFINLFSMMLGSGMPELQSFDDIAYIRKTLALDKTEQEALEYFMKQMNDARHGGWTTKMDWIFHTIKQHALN
T1 sequence (P27986 322-694 partner limits assumed): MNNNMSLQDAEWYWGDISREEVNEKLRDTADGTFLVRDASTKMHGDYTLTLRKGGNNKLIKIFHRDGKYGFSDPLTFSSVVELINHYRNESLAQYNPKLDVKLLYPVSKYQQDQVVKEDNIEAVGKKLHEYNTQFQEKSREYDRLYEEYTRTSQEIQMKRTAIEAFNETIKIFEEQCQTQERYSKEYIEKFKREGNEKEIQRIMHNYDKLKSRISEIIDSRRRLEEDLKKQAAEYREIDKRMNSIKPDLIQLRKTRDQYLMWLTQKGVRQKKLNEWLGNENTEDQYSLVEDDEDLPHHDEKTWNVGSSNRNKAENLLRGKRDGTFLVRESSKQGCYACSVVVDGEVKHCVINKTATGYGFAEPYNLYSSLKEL
Method: SPR experiments were performed on a Biacore 8K instrument. A biotinylated recombinant PI3Kα H1047R protein was used in this study. The protein contained a full-length p110-α subunit harboring the H1047R mutation with an N-terminal AviTag, complexed with a truncated p85-α subunit (amino acid residues 322-694). The protein was first incubated with 1 μM wortmannin for 30 min at RT to covalently block the ATP binding site, then immobilized onto a streptavidin sensor chip by flowing the protein through the sensor chip at typically 20 μg/mL concentration and 2 μL/min flow rate for 1200 seconds. Compound binding affinities were measured in the multi-cycle kinetics mode, at 90 μL/min flow rate with 90 seconds association time and 240 seconds dissociation time. The running buffer contained 50 mM Tris, pH 7.5, 150 mMNaCl, 0.01% Brij35, 1 mM DTT, 1 mM MgCl2, 0.05% Tween-20 and 2% DMSO. Temperature was maintained at 25° C. during experiments. SPR can also be utilized to study competition between Compounds A and B, i.e., by measuring the binding of Compound A in the presence and absence of Compound B, and by measuring the binding of Compound B in the presence and absence of Compound A.

| SMILES | IC50 ([1]; 1 hour) [nM] | IC50 ([1]; Homo sapiens, T47D, 1 h) [nM] | Kd [2] [nM] |
| --- | --- | --- | --- |
| Cc1c([C@@H](NC(=O)Nc2cncc(C(=O)N(C)C)c2)C(C)C)oc2ccc(F)cc12 [Compound A, (S)-5-(3-(1-(5-fluoro-3-methylbenzofuran-2-yl)-2-methylpropyl)ureido)-N,N-dimethylnicotinamide] | 598 | 455 | 38.4 |
| Cc1c([C@@H](Nc2nc3ccc(C(N)=O)cc3[nH]2)C(C)C)oc2ccc(F)cc12 [Compound B, (S)-2-((1-(5-fluoro-3-methylbenzofuran-2-yl)-2-methylpropyl)amino)-1H-benzo[d]imidazole-6-carboxamide] | – | 213 | 8.6 |
